One compound from US20040162247A1, “Therapeutic agent or osteoporosis comprising an active ingredient of quercetin derivatives” (priority 2000, published 2004) can be followed below.

Series [1] relates to ovariectomized rats. The series is described as follows: Complete blood count in ovariectomized rats. It counts as in vivo, Female SD (Sprague-Dawley) rats. Conditions: rat, in vivo. As to the method:
(§1) When test agents were administered, for a certain period of time before and after administration, 1.5 ml of blood was sampled from tail vein using a catheter (B.D Co.: 24 G) and subjected to complete blood count (Coulter Co.: JT) and biochemical analyses of plasma (Crone Co.: Airon® 200). During autopsy, blood was sampled from caudal venae cavae and subjected to the analyses above. And then, each sample was frozen to store for measurement of trabecular bone area of femur and examination of internal organs.
Complete blood count which reflects the condition and abnormality of the body was measured to find out abnormality in test animals caused by administrtion of agents. That is, to find out changes in hematopoiesis of test rats, measured were red blood cell (RBC) count, concentration of hemoglobin (Hb) and hematocrit (Ht) of-blood samples obtained from the rats prior to operation and the rats 10 weeks after administrating agents following operation, and to find out changes in immune system such as inflammation and necrosis of tissues, measured were white blood cell count, lymphocyte count, monocyte count, and granulocyte count (see: Table 7).

Series [2] has as its system ovariectomized rats. The series is described as follows: Trabecular bone area of tibia in ovariectomized rats.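 On Change Rate (%) of TBA of tibia, of control group: control group rats were ovariectomized and are not the sham group.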 It counts as in vivo, Female SD (Sprague-Dawley) rats. Conditions: OVX rats, 9 weeks i.p. (E2 1 μg/kg/day; quercetin, genistein 10 mg/kg/day). How it is done: (§2) Trabecular bone area (TBA) of lumbar and tibia removed from the rats of each group which was treated with various agents for 9 weeks were measured as follows: that is, using a digitalizer of quantitative image analysis system (Wild Leitz Co.), image of each trabecula was obtained on computer monitor by drawing a contour of the trabecula, and then, using a computer, calculated were average areas of trabeculae within a rectangle of 2×10^6 μm^2 area wherein the width is about ⅔ of the length of growth plate which located underneath of growth plate at proximity of tibia. Also, following the number of trabeculae within the rectangle were obtained, average area was multiplied by the number of trabeculae to obtain trabecular bone area of each sample bone, which was analyzed statistically (see: Table 5).

In series [3] the test system is ovariectomized rats. In words: Trabecular bone area of lumbars in ovariectomized rats.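 On Change Rate (%) of TBA of lumbars, of control group: control group rats were ovariectomized and are not the sham group.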 It is filed as in vivo, Female SD (Sprague-Dawley) rats. The settings on record: OVX rats, 9 weeks i.p. (E2 1 μg/kg/day; quercetin, genistein 10 mg/kg/day). How it is done:
as §2
TBAs of lumbars removed from the animal treated with test agents for 9 weeks were measured employing the same method above (see: Table 6).

The conditions of series [4]: rat, in vivo.
Description: Female SD (Sprague-Dawley) rats, a model animal for type I osteoporosis occurring after menopause were employed for evaluating pharmacological effectiveness of quercetin. Female rats (10 weeks old) weighing 200 to 300 g, obtained from the Korea Research Institute of Chemical Technology were employed as experimental animals. Experiment was carried out by the procedure which comprises removing ovary, administration of agents to the each group of rats, and at certain days after ovariectomy, the rats were sacrificed and subjected to analyses including measurement of body weight, examination of internal organs, measurement of trabecular bone area, complete blood count, and biochemical analyses of plasma.
The Sham group, animals operated upon for the surgery as in the ovariectomized rats except for removing ovary, were employed to compare the changes caused solely by ovariectomy in control group which were ovariectomized but no agent was administered. Control group was employed to compare the changes caused by administration of agents in test group which were ovariectomized and administered with testing agents.
During the period of administration, blood was sampled once a week. After 9-week administration, entire blood was withdrawn with heparin treatment. Following complete blood count (CBC), the blood was centrifuged at 3,000 rpm for 20 minutes to obtain plasma which was stored at −70° C. until use. For measurement of bone mineral density, the lumbar spine L5 and L6, and right tibia were removed and stored separately in 4% (v/v) formalin solution.
Series [5] deals with ovariectomized rats. In words: Biochemical parameters in plasma of ovariectomized rats. It is filed as in vivo, Female SD (Sprague-Dawley) rats. The settings on record: rat, in vivo. How it is done: as §1
Since blood reflects the condition of body, safety of quercetin in the body was evaluated by measuring biochemical parameters: that is, blood samples were obtained from the rat prior to operation, one week after operation, and 10 weeks after operation, and measured were levels of alkaline phosphatase (ALP), calcium, inorganic phosphate, blood urea nitrogen (BUN), creatinin, total cholesterol, HDL-cholesterol and LDL-cholesterol (see: Table 8).

Each structure is given as a SMILES string. “And” between values parts separate entries of the source, which are not always exact repeats. Identical values can stand only once.

As to `C[C@]12CC[C@@H]3c4ccc(O)cc4CC[C@H]3[C@@H]1CC[C@@H]2O` [E2, 17β-estradiol], in the series on ovariectomized rats [1], the “Concentration of hemoglobin(Hb)” value was 15.86 ± 0.24 g/dL; the “Hematocrit(Ht)” value is reported as 43.11 ± 0.55%; the “Lymphocyte and granulocyte count, before versus after operation (in words)” value is listed as “rapid decrease”; the Lymphocyte count was 17.80 ± 1.72 ×10^3 cells/μl. In the series on ovariectomized rats [1], the “Red blood cell(RBC) count” value is recorded as 7.33 ± 0.13 ×10^6 cells/μl; the “White blood cell count” value is reported as 23.14 ± 1.50 ×10^3 cells/μl; the “White blood cell count, before versus after operation (in words)” value is on record as “decreased”. For the same compound, the “TBA (trabecular bone area) of tibia” value in the series on ovariectomized rats [2] is 51.40 ± 2.28 ×10^4 μm^2. In addition, the “Change Rate (%) of TBA of tibia, of control group” value in the series on ovariectomized rats [2] (control group = 100) is 148% and 148.46 ± 6.59%. Also, the “TBA (trabecular bone area) of lumbars” value in the series on ovariectomized rats [3] was 89.16 ± 2.83 ×10^4 μm^2. Further, in the series on ovariectomized rats [3] (control group = 100), the “Change Rate (%) of TBA of lumbars, of control group” value was 132% and 132.04 ± 4.19 %. Moreover, in series [4], the “Weight” value was 228.51 ± 8.11 g. Also, in the series on ovariectomized rats [5], the “Concentration of ALP in plasma” value is 196.01 ± 28.34 U/dL, the “Concentration of HDL-cholesterol in plasma” value is 52.30 ± 2.01 mg/dL, the “Concentration of LDL-cholesterol in plasma” value is 24.49 ± 1.63 mg/dL and the “Concentration of blood urea nitrogen (BUN)” value is given as 18.36 ± 1.01 mg/dL. In addition, in the series on ovariectomized rats [5], the “Concentration of calcium in plasma” value came to 10.86 ± 0.40 mg/dL, the “Concentration of creatinin in plasma” value is reported as 0.55 ± 0.05 mg/dL, the “Concentration of inorganic phosphate in plasma” value was determined as 6.90 ± 0.52 mg/dL and the “Concentration of total cholesterol in plasma” value is reported as 76.79 ± 2.80 mg/dL.
